The nature of one data set: in vitro. The class given is cell-based. The settings on record: human, HepG2 or HepG2.117 cells, 3-days incubation (unmarked values), ATPlite; mean value. An outline of the steps:
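Luminescent ATP quantitation served as the viability endpoint following a 3- or 4-day incubation with test compounds.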

The subject of data set [1] is HBV (HepG2.117 cell line, inducibly HBV producing). In words: Anti-HBV activity: intracellular HBV DNA by real-time PCR in HepG2.117 cells after 3 days of treatment. The settings on record: Hepatitis B virus, HepG2.117, 72 h, HepG2.117 cells, 3 days of treatment, intracellular HBV DNA by real-time PCR; mean value; read-out: EC50 (μM, mean value). The class given is cell-based, hepatitis B virus. An outline of the steps: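 Readout is intracellular HBV DNA, measured by real-time PCR with HBV-specific primers and probe after 3 days of exposure to serial compound dilutions. Cells are the stable HepG2.117 line, where HBV replication is induced in the absence of doxycycline.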

Compound `CC(C)Nc1nc2c(c(=O)n1-c1ccc(C(=O)N3CCN(C)CC3)cc1)C[C@@H](C)N(C(=O)c1ccc(Cl)c(Cl)c1)C2` [Compound C169, (6R)-7-(3,4-dichlorobenzoyl)-6-methyl-3-[4-(4-methylpiperazine-1-carbonyl)phenyl]-2-[(propan-2-yl)amino]-5,6,7,8-tetrahydropyrido[3,4-d]pyrimidin-4(3H)-one] registered a half-maximal cytotoxic concentration (CC50) at 3 days in “in vitro” of 30.7 µM. The EC50 in data set [1] amounted to 0.15 µM.
On the same counts, the results for `CC(C)Nc1nc2c(c(=O)n1-c1ccc(-c3cscn3)cc1)CCN(C(=O)c1ccc(Cl)c(Cl)c1)C2` [Compound C170, 7-(3,4-dichlorobenzoyl)-2-[(propan-2-yl)amino]-3-[4-(1,3-thiazol-4-yl)phenyl]-5,6,7,8-tetrahydropyrido[3,4-d]pyrimidin-4(3H)-one] are more than 50 µM and 0.53 µM.
On the same counts, the results for `CC(C)Nc1nc2c(c(=O)n1-c1ccc(-c3ncc(F)cc3F)cc1)CCN(C(=O)c1ccc(Cl)c(Cl)c1)C2` [Compound C171, 7-(3,4-dichlorobenzoyl)-3-[4-(3,5-difluoropyridin-2-yl)phenyl]-2-[(propan-2-yl)amino]-5,6,7,8-tetrahydropyrido[3,4-d]pyrimidin-4(3H)-one] are 4.6 µM and 3.95 µM.
On the same counts, the results for `COc1cccnc1-c1ccc(-n2c(NC(C)C)nc3c(c2=O)CCN(C(=O)c2ccc(Cl)c(Cl)c2)C3)cc1` [Compound C172, 7-(3,4-dichlorobenzoyl)-3-[4-(3-methoxypyridin-2-yl)phenyl]-2-[(propan-2-yl)amino]-5,6,7,8-tetrahydropyrido[3,4-d]pyrimidin-4(3H)-one] are 5.3 µM and 1.66 µM.
In “in vitro”, `CC(C)Nc1nc2c(c(=O)n1-c1ccc(-c3cccc(N4CCOCC4)n3)cc1)CCN(C(=O)c1ccc(Cl)c(Cl)c1)C2` [Compound C173, 7-(3,4-dichlorobenzoyl)-3-{4-[6-(morpholin-4-yl)pyridin-2-yl]phenyl}-2-[(propan-2-yl)amino]-5,6,7,8-tetrahydropyrido[3,4-d]pyrimidin-4(3H)-one] displayed a CC50 at 3 days of 7.8 µM. The EC50 in data set [1] turned out to be 0.88 µM.
With `CC(C)Nc1nc2c(c(=O)n1-c1ccc(-c3nccn3C)cc1)CCN(C(=O)c1ccc(Cl)c(Cl)c1)C2` [Compound C174, 7-(3,4-dichlorobenzoyl)-3-[4-(1-methyl-1H-imidazol-2-yl)phenyl]-2-[(propan-2-yl)amino]-5,6,7,8-tetrahydropyrido[3,4-d]pyrimidin-4(3H)-one], half-maximal cytotoxicity in “in vitro” (CC50 at 3 days) was put at 6.8 µM. Moreover, the EC50 in data set [1] was 0.42 µM.
On the same counts, the results for `CC(C)Nc1nc2c(c(=O)n1-c1ccc(-c3ccco3)cc1)CCN(C(=O)c1ccc(Cl)c(Cl)c1)C2` [Compound C175, 7-(3,4-dichlorobenzoyl)-3-[4-(furan-2-yl)phenyl]-2-[(propan-2-yl)amino]-5,6,7,8-tetrahydropyrido[3,4-d]pyrimidin-4(3H)-one] are 17 µM and 1.25 µM.
In the case of `CC(C)Nc1nc2c(c(=O)n1-c1ccc(-c3cnccn3)cc1)CCN(C(=O)c1ccc(Cl)c(Cl)c1)C2` [Compound C176, 7-(3,4-dichlorobenzoyl)-2-[(propan-2-yl)amino]-3-[4-(pyrazin-2-yl)phenyl]-5,6,7,8-tetrahydropyrido[3,4-d]pyrimidin-4(3H)-one], half-maximal cytotoxicity in “in vitro” (CC50 at 3 days) was put at 8.7 µM. Also, the EC50 in data set [1] was found to be 0.57 µM.
In the same order, the values of `CC(C)Nc1nc2c(c(=O)n1-c1ccc(-c3ccnnc3)cc1)CCN(C(=O)c1ccc(Cl)c(Cl)c1)C2` [Compound C177, 7-(3,4-dichlorobenzoyl)-2-[(propan-2-yl)amino]-3-[4-(pyridazin-4-yl)phenyl]-5,6,7,8-tetrahydropyrido[3,4-d]pyrimidin-4(3H)-one] are 18.2 µM and 0.26 µM.
Regarding `CC(C)NC(=O)c1ccc(-n2c(NC(C)C)nc3c(c2=O)C[C@@H](C)N(C(=O)c2ccc(Cl)c(Cl)c2)C3)cc1` [Compound C178, 4-[(6R)-7-(3,4-dichlorobenzoyl)-6-methyl-4-oxo-2-[(propan-2-yl)amino]-5,6,7,8-tetrahydropyrido[3,4-d]pyrimidin-3(4H)-yl]-N-(propan-2-yl)benzamide], in “in vitro”, the CC50 at 3 days was more than 50 µM. The concentration for a half-maximal effect (EC50) in data set [1] is 0.04 µM.
In the same order, the values of `COC(=O)C1COCCN1c1ccc(-n2c(NC(C)C)nc3c(c2=O)CCN(C(=O)c2ccc(Cl)c(Cl)c2)C3)cc1` (stereo not shown) [Compound C179, methyl 4-{4-[7-(3,4-dichlorobenzoyl)-4-oxo-2-[(propan-2-yl)amino]-5,6,7,8-tetrahydropyrido[3,4-d]pyrimidin-3(4H)-yl]phenyl}morpholine-3-carboxylate] are 19.3 µM and 0.72 µM.
Consider `CNC1CCN(c2ccc(-n3c(NC(C)C)nc4c(c3=O)CCN(C(=O)c3ccc(Cl)c(Cl)c3)C4)cc2)C1` (stereo not shown) [Compound C180, 7-(3,4-dichlorobenzoyl)-3-{4-[3-(methylamino)pyrrolidin-1-yl]phenyl}-2-[(propan-2-yl)amino]-5,6,7,8-tetrahydropyrido[3,4-d]pyrimidin-4(3H)-one], for which the midpoint of cytotoxicity in the data set “in vitro”, the CC50 at 3 days, lay at 5.6 µM. In data set [1], the half-maximal effective concentration (EC50) amounted to 0.72 µM.
On the same counts, the results for `CC(C)Nc1nc2c(c(=O)n1-c1ccc(S(C)(=O)=O)cc1)CCN(C(=O)c1cc(Cl)c(Cl)s1)C2` [Compound C181, 7-(4,5-dichlorothiophene-2-carbonyl)-3-[4-(methanesulfonyl)phenyl]-2-[(propan-2-yl)amino]-5,6,7,8-tetrahydropyrido[3,4-d]pyrimidin-4(3H)-one] are more than 50 µM and 2.56 µM.
Consider `CC(C)Nc1nc2c(c(=O)n1-c1ccc(S(C)(=O)=O)cc1)CCN(C(=O)c1cc3ccccc3s1)C2` [Compound C182, 7-(1-benzothiophene-2-carbonyl)-3-[4-(methanesulfonyl)phenyl]-2-[(propan-2-yl)amino]-5,6,7,8-tetrahydropyrido[3,4-d]pyrimidin-4(3H)-one], for which, in the data set “in vitro”, the CC50 at 3 days was more than 50 µM. Further, in data set [1], the half-maximal effective concentration (EC50) was determined as 3.14 µM.
On to `CC(C)Nc1nc2c(c(=O)n1-c1ccc(Br)cc1)C[C@@H](C)N(C(=O)c1ccc(Cl)c(Cl)c1)C2` [Compound C183, (6R)-3-(4-bromophenyl)-7-(3,4-dichlorobenzoyl)-6-methyl-2-[(propan-2-yl)amino]-5,6,7,8-tetrahydropyrido[3,4-d]pyrimidin-4(3H)-one], for which, in the data set “in vitro”, the CC50 at 3 days was more than 50 µM. In data set [1], the concentration giving a half-maximal response (EC50) stood at 0.21 µM.
In the same order, the values of `CC(C)Nc1nc2c(c(=O)n1-c1ccc(S(C)(=O)=O)cc1)CCN(C(=O)C1Cc3ccccc3N1)C2` (stereo not shown) [Compound C184, 7-(2,3-dihydro-1H-indole-2-carbonyl)-3-[4-(methanesulfonyl)phenyl]-2-[(propan-2-yl)amino]-5,6,7,8-tetrahydropyrido[3,4-d]pyrimidin-4(3H)-one] are more than 50 µM and 0.71 µM.
In the same order, the values of `CC(C)Nc1nc2c(c(=O)n1-c1ccc(-c3cn[nH]c3)cc1)CCN(C(=O)c1ccc(Cl)c(Cl)c1)C2` [Compound C186, 7-(3,4-dichlorobenzoyl)-2-[(propan-2-yl)amino]-3-[4-(1H-pyrazol-4-yl)phenyl]-5,6,7,8-tetrahydropyrido[3,4-d]pyrimidin-4(3H)-one] are more than 50 µM and 0.51 µM.

These data come from patent publication US20230091047A1 (priority 2019, published 2023).
